The values that follow come from US4515708A, “Corrosion inhibitors” (Exxon Research & Engineering Co., priority 1982, dated 1985).

A short description of data set [1]: Solubility Test (35 wt% solution in isopropylalcohol shaken with water, brine or heptane). It is filed as physicochemical. As to the method: The active material under test was made up into a 35 wt% solution in isopropylalcohol (IPA). 0.3 ml of this solution was shaken with 10 ml of each of the liquids in which solubility is to be tested: water, 5 wt% NaCl solution (brine) and heptane. The mixture was observed after 30 minutes and 24 hours.

The nature of data set [2]: Emulsion Test (3 wt% brine / heptane). Format: physicochemical. The arrangement: Emulsion thickness after 30 mins: unit not given here. The following applies: for Time to break emulsion: 1 ml of 35 wt% IPA solution, 50 ml 3 wt% brine, 50 ml heptane; for Appearance after 30 mins, hydrocarbon: hydrocarbon layer; for Appearance after 30 mins, water: water layer. As to the method:
1 ml of the solutions used for Test A was shaken with 50 ml of 3 wt% brine and 50 ml of heptane for 1 minute in a 150 ml bottle. The emulsion was observed, and the time noted for the emulsion to break and form a clean interface with clear liquid layers. If at 30 minutes this had not occurred, the appearance was recorded together with the thickness of any persisting emulsion.

Data set [3] can be described thus: Corrosion Test 1 (dynamic wheel test; 3 wt% brine/Mentor 28; CO2 + H2S). The following applies: 24 h, 70° C., 30% solution. A digest of the protocol: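 Mild steel coupons exposed to 3 wt% brine/Mentor 28 kerosene (1:1) saturated with CO2 plus 100 ppm H2S, inhibitor dosed at 2, 10, 50 and 250 ppm (as 30% aqueous solution). Bottles rotated on a wheel at about 40 rpm for 24 h at 70° C; % protection = reduction in weight loss versus uninhibited control.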

Data set [4] can be described thus: Corrosion Test 4 (dynamic wheel test; 3 wt% brine + Mentor 28; H2S). The following applies: 24 h, 70° C. Put shortly: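 Three mild steel coupons per concentration were exposed to 100 ml 3 wt% brine plus 100 ml Mentor 28 with 100 ppm H2S after a nitrogen purge. Compound was dosed as a 30% aqueous solution at 2, 10, 50 and 250 ppm. Bottles were rotated on a wheel at about 40 rpm for 24 h at 70 °C; % protection = % reduction in weight loss versus uninhibited control.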

Data set [5] can be described thus: Corrosion inhibition tests, constant concentration conditions (overall). As to the method:
(§1) For each compound three mild steel coupons (approximately 100 mm×12 mm×1.5 mm) were tested at each concentration. Each was contacted in a 250 ml bottle with 200 ml of a test fluid either saturated with a carbon dioxide at 20° C. or containing 100 ppm hydrogen sulphide or having both CO2 and H2 S present in those amounts. The test fluid was treated with a 30% aqueous solution of the compound under test at 2, 10, 50 and 250 ppm except where indicated to the contrary. The coupon was subjected to a dynamic wheel test in which the bottle was mounted radially on the periphery of 650 mm diameter wheel which was rotated at about 40 rpm for 24 hours at 70° C. The weight loss was obtained, and also measured in a control experiment where no inhibitor was present. From this the % protection was calculated as % reduction in weight loss.

The nature of data set [6]: Corrosion Test 2 (dynamic wheel test; 3 wt% brine; CO2 + H2S). The following applies: 24 h, 70° C. A digest of the protocol: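 Mild steel coupons in 200 ml 3 wt% brine saturated with CO2 plus 100 ppm H2S; inhibitor dosed at 2, 10, 50 and 250 ppm of a 30% aqueous solution. Dynamic wheel test at about 40 rpm, 24 hours, 70° C. % protection is the % reduction in weight loss vs an uninhibited control, three coupons per concentration.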

A short description of data set [7]: Corrosion Test 3 (dynamic wheel test; 3 wt% brine + Mentor 28; CO2 only). The following applies: 24 h, 70° C. As to the method: as §1
Test fluid: 100 ml 3 wt% brine+100 ml Mentor 28
Corrosives: Saturated CO2 only

Data set [8] can be described thus: Film persistency corrosion test. The following applies: CO2 + H2S, 24 h, 70° C. As to the method: […] A test fluid made up of equal proportions of 3 wt% brine and Mentor 28 was used, saturated with CO2 and containing 100 ppm H2 S as corrosives. Coupons were used as described for the previous corrosion test. A coupon was first immersed in test fluid containing corrosives and the inhibitor under test for 1 hour, then rinsed for 1 hour in a similar test fluid containing no inhibitor and finally transferred to a further test fluid again containing no inhibitor in which the dynamic wheel test was carried out at 70° C. for 24 hours.

Where [9] appears, read: 50 ml 3 wt% brine/50 ml heptane.

With `CCCCCCCCCCCCN(CCc1ccccn1)CCc1ccccn1` [Example 19], in data set [1] (0.3 ml of 35 wt% IPA solution in 10 ml heptane, 30 minutes and 24 hours), the “SOLUBILITY IN: Heptane” value was “S”. For the same molecule, the “SOLUBILITY IN: Water” value in data set [1] (0.3 ml of 35 wt% IPA solution in 10 ml water, observed after 30 minutes and 24 hours) is “S”. In data set [2], the “Time to break emulsion” value is over 30 min. Also, the “Appearance after 30 mins, hydrocarbon” value in data set [2] (setting [9]) was “hazy”. Besides, the “Appearance after 30 mins, water” value in data set [2] (setting [9]) is listed as “hazy”. The “% Protection” value is 16% in data set [3] (2 ppm); 71% in data set [3] (10 ppm); 77% in data set [3] (50 ppm); 86% in data set [3] (250 ppm); 2% in data set [4] (2 ppm); 57% in data set [4] (10 ppm). Further, the “% Protection” value in data set [4] (250 ppm) amounted to 57%. Besides, the “performance of 2:1 derivatives compared with 1:1 derivatives” value in data set [5] is listed as “tended to perform less well than 1:1 derivatives”.

For the molecule `CCCCCCCCCCCCN(CCc1ccncc1)CCc1ccncc1` [Example 39], the “Time to break emulsion” value in data set [2] was over 30 min. Also, the “Emulsion thickness after 30 mins” value in data set [2] (setting [9]) worked out at 0.1. The “Appearance after 30 mins, hydrocarbon” value in data set [2] (setting [9]) is reported as “hazy”. Further, the “Appearance after 30 mins, water” value in data set [2] (setting [9]) was “hazy”. In addition, the “% Protection” value in data set [3] (2 ppm) turned out to be 26%; in data set [3] (10 ppm), 70%; in data set [3] (50 ppm) it was 89%; in data set [3] (250 ppm), 89%; in data set [6] (2 ppm), 41%; in data set [6] (10 ppm) it was 65%. Also, the “% Protection” value in data set [6] (50 ppm) worked out at 78%; in data set [6] (250 ppm) it was 87%; in data set [7] (2 ppm), 9%; in data set [7] (10 ppm), 5%; in data set [7] (250 ppm), 15%; in data set [4] (2 ppm), 3%. Further, the “% Protection” value in data set [4] (10 ppm) is 26%; in data set [4] (50 ppm), 64%; in data set [4] (250 ppm) it was 85%; in data set [8] (500 ppm), 20%; in data set [8] (1000 ppm) it was 24%; in data set [8] (5000 ppm) it was 33%. In data set [5], the “performance of 2:1 derivatives compared with 1:1 derivatives” value is “tended to perform less well than 1:1 derivatives”.
